From patent publication US9174916B2, “Compounds and uses thereof for treating inflammation and modulating immune responses” (PURAPHARM COMPANY LIMITED, priority 2009, dated 2015) come the findings set out here.

Common to all, as to type: cell-based, human
One assay has as its system TNF-α. Kind of assay: LPS-induced TNF-α production in primary blood macrophages, ELISA of culture supernatants. The settings on record: for inhibition of LPS-induced TNF-α protein production: 140 μM B22EES1-8-3 for 24 hr, mean±S.D. of 6 experiments. How it is done: FIGS. 5A-5B show inhibition of LPS-induced TNF-α production by B22EES1-8-3 and dexamethasone. PBMac were incubated with (A) 140 μM B22EES1-8-3 or (B) 1.3 or 5.1 μM dexamethasone (Dex) for 24 hr prior to the addition of 1 ng/mL and 10 ng/mL LPS for another 24 hr. The culture supernatants were collected and assayed for TNF-α by ELISA. The results shown were the mean values±standard derivation (S.D.) of 6 independent experiments, with cells obtained from different donors. * P<0.05, compared with the corresponding control.
Human peripheral blood monocytic cells (PBMC) were isolated from the buffy coat of healthy donor blood supplied by Hong Kong Red Cross by Ficoll-Paque (Amersham Pharmacia Biotech, Piscataway, N.J.) density gradient centrifugation as described in our previous reports^14,15,34. In brief, the buffy coat was spun at 3000 rotations per min (rpm) for 15 min to separate the blood cells and the plasma. The heat inactivated serum was filtered for future use.
The adherent monocytic cells were detached and seeded onto tissue culture plates and incubated for another 7-14 days in order to differentiate the primary blood monocytic cells to primary blood macrophages (PBMac).
Culture supernatants of the LPS-treated PBMac, with or without B22EES1-8-3 pretreatment, were collected at different time intervals and stored at −70° C. The levels of the secreted TNF-α were measured by ELISA kits specific for the cytokine (R&D system, Minneapolis, Minn.).
To confirm the activities of B8-3 in suppressing TNF-α production, B8-3 was incubated with PBMac for 24 hr prior the addition of LPS at concentrations of 1 ng/mL and 10 ng/mL for 24 hr. The culture supernatants were collected and measured by ELISA for the level of secreted TNF-α.
To further compare the efficiency of B8-3 with existing drugs, dexamethasone, a potent immunosuppressive corticosteroid, was used as a prototype. PBMac were treated with dexamethasone for 24 hr prior to the addition of LPS at concentrations of 1 ng/mL and 10 ng/mL for 24 hr.
In general terms: An ELISA detects its analyte on a solid surface through an enzyme-linked reagent.

The next assay deals with ERK1/2. Kind of assay: LPS-induced phosphorylation of ERK1/2 in PBMac, Western blot. The settings on record: B22EES1-8-3 140 μM for 24 h, then 10 ng/mL LPS for 15 min. How it is done:
(§1) FIGS. 6A-6C show the effects of B22EES1-8-3 on LPS-induced phosphorylation (phospho-) of ERK1/2 and p38 MAP kinases, and nuclear translocation of NF-κB p65. PBMac were incubated with B22EES1-8-3 (140 μM) for 24 h prior to the addition of 10 ng/mL LPS for an additional 15 min. Cytoplasmic (A, B) and nuclear (C) proteins were harvested for Western Blotting: (A) Cytoplasmic proteins: phospho-ERK1/2 and total ERK1/2. (B) Cytoplasmic proteins: phospho-p38 and total p38 kinase. (C) Nuclear proteins: upper panel, NF-κB p65 and lamin B; lower panel, the intensity of corresponding lanes in the gel photograph of NF-κB p65 was shown. The results shown are representative of at least three independent experiments, with cells obtained from different donors. * P<0.05, compared with the corresponding control. […]
(§2) Whole cell lysate (20 μg) or nuclear protein (2 μg) were separated by sodium dodecyl sulfate polyacrylamide gel electrophoresis (SDS-PAGE) and transferred to nitrocellulose membranes for probing overnight with the respective antibodies specific for the phosphorylated or total form of ERK1/2 and p38 MAPK (Cell Signaling Technology, Beverly, Mass.), NF-κB p65 protein and lamin B (Santa Cruz Biotechnology, Santa Cruz, Calif.). […] In order to quantify the results from the Western blots, the gels were scanned and the intensity of the bands was analyzed by a computer program Quantity One from BioRad. […]
On the technique in general: In western blotting, separated proteins are transferred to a membrane and probed.

The next assay has as its system NF-κB p65. Kind of assay: LPS-induced nuclear translocation of NF-κB p65 in PBMac, Western blot of nuclear proteins. The settings on record: B22EES1-8-3 140 μM for 24 h, then 10 ng/mL LPS for 15 min, nuclear fraction. How it is done:
as §1, §2

The subject of the next assay is p38 MAPK. Kind of assay: LPS-induced phosphorylation of p38 MAPK in PBMac, Western blot. The settings on record: B22EES1-8-3 140 μM for 24 h, then 10 ng/mL LPS for 15 min. On the procedure: as §1, §2

On to `C[C@@H]1C[C@H]2[C@@H]3CCC4=CC(=O)C=C[C@]4(C)[C@@]3(F)[C@@H](O)C[C@]2(C)[C@@]1(O)C(=O)CO` [dexamethasone, reference compound], for which, in the assay with TNF-α (Homo sapiens, Macrophage, PBMac, dexamethasone 1.3 μM for 24 hr, then LPS (1 and 10 ng/mL used) for 24 hr), the inhibition – broadly, the drop in the measured response relative to a control, in per cent – at 1.3 µM worked out at 32 ± 7.5%. This molecule also yielded an inhibition at 5.1 µM with TNF-α (Homo sapiens, Macrophage, PBMac, dexamethasone 5.1 μM for 24 hr, then LPS (1 and 10 ng/mL used) for 24 hr) of 25 ± 6.3%.

With `COc1ccc(/C=C/C(=O)OCC(=O)Cc2ccc(O)c(O)c2)cc1O` [B8-3], the “effect on LPS-induced phosphorylation of ERK1/2” value with ERK1/2 is on record as “suppressed”. Besides, the “effect on nuclear translocation of NF-κB p65” value with NF-κB p65 is recorded as “reduced the amount of p65NF-kB in the nuclear fraction”. In addition, in the assay with p38 MAPK, the “effect on LPS-induced phosphorylation of p38 MAPK” value is listed as “not p38 MAPK induced by LPS was suppressed”. Further, the “inhibition of LPS-induced TNF-α protein production” value is listed as 47±19% in the assay with TNF-α (PBMac, then LPS 1 ng/mL for 24 hr) and 58±30% in the assay on TNF-α (PBMac, then LPS 10 ng/mL for 24 hr). In addition, the “amelioration of LPS-upregulated TNF-α production” value in the assay with TNF-α (summary statement, FIG. 5A, LPS concentration not stated) was “over 50%”.
